Measured values published in patent US20180094248A1, “Necroptosis Signaling as a Therapeutic Target for Alzheimer's Disease” (Arizona Board of Regents on behalf of Arizona State …, priority 2016, published 2018).

Legend:
phosphorylated MLKL [1] = test: Western blot of total and phosphorylated MLKL in primary neurons (AAV-GFP experiment); assay type: cell-based, mouse
Experimental: At DIV 1, we infected primary cortical neurons isolated from APP/PS1 and wild type mice with an adeno-associated virus (AAV) expressing the green fluorescent protein (GFP) under the neuronal promotor CamKII. At DIV 7 and 11, neurons from the two genotypes were treated with 10 μM Nec1S or vehicle. We then measured GFP fluorescence in live cells as an indication of live neurons.
(§1) Western blot and ELISA: The proteins were run using reducing conditions in precast gels (Thermo Fisher Scientific) and transferred to nitrocellulose membranes (iBlot, Thermo Fisher Scientific). […] The blots were then washed with TBS-T, and imaged/quantified using a LICOR Odyssey CLx (LI-COR Biosciences) attached to a Dell computer (OptiPlex 7010) running Windows 7 and Image Studio (version 1.0.11, LI-COR Biosciences). […]
Primary neuronal cultures—For the GFP experiments: Primary neurons were isolated from APP/PS1 and NonTg Po pups. […] Neurons were treated for a total of 15 days and the GFP fluorescence was measured every 4 days. […] All fluorescent measurements (excitation 488 nm, emission 509 nm) were performed using the Synergy HT multi-mode microplate reader with the Gen5 software (BioTek, Winooski, Vt.). The reader was pre-heated to 37° C. to maintain optimal conditions for the neurons during the measurements. […]

phosphorylated MLKL [2] = test: Western blot of total and phosphorylated MLKL in brains of Nec-1S treated 5xFAD mice; assay type: in vivo, mouse; conditions: 8-month-old 5xFAD mice; 10 mg/kg i.p. once, then 0.5 mg/ml in drinking water for 21 days; vs vehicle
Experimental: Specifically, mice receive a single intraperitoneal injection of 10 mg/kg Nec1s after which they were given Nec1S in their drinking water at a concentration of 0.5 mg/ml for 21 days.
Protein Extraction: Human temporal gyms tissue samples (0.1 g/sample) were extracted in sequential buffers, from lower to higher detergent strength. Briefly, the samples were homogenized in TBS (50 mM Tris-HCl, pH 7.4, 175 mM NaCl, 5 mM EDTA, 1 mM N-ethyl-maleimide) containing protease inhibitors (Roche) and phosphatase inhibitors (Millipore). The protein extract was centrifuged at 120,000 g for 30 minutes at 4° C. The resulting supernatant represented the TBS soluble fraction. Pellets were homogenized in TBS/1% Triton X-100 and spun at 1000 g for 10 minutes at 4° C. The supernatant represented the Triton soluble fraction. Pellets were washed in TBS/1M sucrose and then homogenized in RIPA buffer. […]
as §1

Question: With `CN1C(=O)NC(Cc2c[nH]c3c(Cl)cccc23)C1=O` (stereo not drawn) [Nec1S, 5-((7-chloro-1 H-indol-3-yl)methyl)-3-methylimidazolidine-2,4-dione] as the compound, how does the pMLKL level (phosphorylated MLKL [1]; DIV 11, all four groups, AAV-GFP experiment) read?
Answer: not detectable

Question: And the “ratio pMLKL/MLKL” value (phosphorylated MLKL [1]; DIV 15, 10 μM, APP/PS1-veh group vs the other three groups incl. APP/PS1-Nec1S)?
Answer: statistically different compared to the other three groups

Question: And the pMLKL/MLKL ratio (phosphorylated MLKL [2])?
Answer: lower pMLKL/MLKL ratio
